From PubChem BioAssay AID1259407 (Chemical Carcinogenesis Research Information System (CCRIS), 2018) come the findings set out here.

Calls of active or inactive are those of the source. The rule behind the calls is not given here.

The series deals with CCRIS mutagenicity, Ames/micronucleus/aberration tests. In words: CCRIS mutagenicity studies.
The mark [1] stands for this setting: Test System: AMES SALMONELLA TYPHIMURIUM, Strain/Indicator: TA98, Metabolic Activation: NONE, Method: STANDARD PLATE.
Where [2] appears, read: Test System: AMES SALMONELLA TYPHIMURIUM, Strain/Indicator: TA100, Metabolic Activation: NONE, Method: STANDARD PLATE.
[3] abbreviates: Test System: AMES SALMONELLA TYPHIMURIUM, Strain/Indicator: TA1535, Metabolic Activation: NONE, Method: STANDARD PLATE.
Where [4] appears, read: Test System: AMES SALMONELLA TYPHIMURIUM, Strain/Indicator: TA1538, Metabolic Activation: NONE, Method: STANDARD PLATE.

Consider `[Cl][Fe]([Cl])[Cl]`, for which the mutagenic call was “inactive; negative” (Test System: AMES SALMONELLA TYPHIMURIUM, Strain/Indicator: TA98, Metabolic Activation: HAMSTER, LIVER, S-9, AROCLOR 1254, Method: STANDARD PLATE); “inactive; negative” (Test System: AMES SALMONELLA TYPHIMURIUM, Strain/Indicator: TA98, Metabolic Activation: NONE, Method: PREINCUBATION); “inactive; negative” under setting [1]; “inactive; negative” (Test System: AMES SALMONELLA TYPHIMURIUM, Strain/Indicator: TA98, Metabolic Activation: RAT, LIVER, S-9, AROCLOR 1254, Method: STANDARD PLATE); “inactive; negative” (Test System: AMES SALMONELLA TYPHIMURIUM, Strain/Indicator: TA98, Metabolic Activation: RAT, LIVER, S-9, KC 500, Method: PREINCUBATION); “inactive; negative” (Test System: AMES SALMONELLA TYPHIMURIUM, Strain/Indicator: TA100, Metabolic Activation: HAMSTER, LIVER, S-9, AROCLOR 1254, Method: STANDARD PLATE). For the same compound, the mutagenic call runs as follows: (Test System: AMES SALMONELLA TYPHIMURIUM, Strain/Indicator: TA100, Metabolic Activation: NONE, Method: PREINCUBATION) “inactive; negative”; under setting [2], “inactive; negative”; (Test System: AMES SALMONELLA TYPHIMURIUM, Strain/Indicator: TA100, Metabolic Activation: RAT, LIVER, S-9, AROCLOR 1254, Method: STANDARD PLATE) “inactive; negative”; (Test System: AMES SALMONELLA TYPHIMURIUM, Strain/Indicator: TA100, Metabolic Activation: RAT, LIVER, S-9, KC 500, Method: PREINCUBATION) “inactive; negative”; (Test System: AMES SALMONELLA TYPHIMURIUM, Strain/Indicator: TA1535, Metabolic Activation: HAMSTER, LIVER, S-9, AROCLOR 1254, Method: STANDARD PLATE) “inactive; negative”; (Test System: AMES SALMONELLA TYPHIMURIUM, Strain/Indicator: TA1535, Metabolic Activation: NONE, Method: PREINCUBATION) “inactive; negative”. Also, the mutagenic call reads like this: under setting [3], “inactive; negative”; (Test System: AMES SALMONELLA TYPHIMURIUM, Strain/Indicator: TA1535, Metabolic Activation: RAT, LIVER, S-9, AROCLOR 1254, Method: STANDARD PLATE) “inactive; negative”; (Test System: AMES SALMONELLA TYPHIMURIUM, Strain/Indicator: TA1535, Metabolic Activation: RAT, LIVER, S-9, KC 500, Method: PREINCUBATION) “inactive; negative”; (Test System: AMES SALMONELLA TYPHIMURIUM, Strain/Indicator: TA1537, Metabolic Activation: HAMSTER, LIVER, S-9, AROCLOR 1254, Method: STANDARD PLATE) “inactive; negative”; (Test System: AMES SALMONELLA TYPHIMURIUM, Strain/Indicator: TA1537, Metabolic Activation: NONE, Method: PREINCUBATION) “inactive; negative”; (Test System: AMES SALMONELLA TYPHIMURIUM, Strain/Indicator: TA1537, Metabolic Activation: NONE, Method: STANDARD PLATE) “inactive; negative”. Also, the mutagenic call (Test System: AMES SALMONELLA TYPHIMURIUM, Strain/Indicator: TA1537, Metabolic Activation: RAT, LIVER, S-9, AROCLOR 1254, Method: STANDARD PLATE) is “inactive; negative”; the mutagenic call (Test System: AMES SALMONELLA TYPHIMURIUM, Strain/Indicator: TA1537, Metabolic Activation: RAT, LIVER, S-9, KC 500, Method: PREINCUBATION) was “inactive; negative”; the mutagenic call (Test System: AMES SALMONELLA TYPHIMURIUM, Strain/Indicator: TA1538, Metabolic Activation: HAMSTER, LIVER, S-9, AROCLOR 1254, Method: STANDARD PLATE) was “inactive; negative”; the mutagenic call (Test System: AMES SALMONELLA TYPHIMURIUM, Strain/Indicator: TA1538, Metabolic Activation: NONE, Method: PREINCUBATION) was “inactive; negative”; the mutagenic call under setting [4] was “inactive; negative”; the mutagenic call (Test System: AMES SALMONELLA TYPHIMURIUM, Strain/Indicator: TA1538, Metabolic Activation: RAT, LIVER, S-9, AROCLOR 1254, Method: STANDARD PLATE) was “inactive; negative”. The mutagenic call (Test System: AMES SALMONELLA TYPHIMURIUM, Strain/Indicator: TA1538, Metabolic Activation: RAT, LIVER, S-9, KC 500, Method: PREINCUBATION) was “inactive; negative”; the mutagenic call (Test System: E. COLI, Strain/Indicator: WP2 UVRA, Metabolic Activation: NONE, Method: PREINCUBATION) was “inactive; negative”; the mutagenic call (Test System: E. COLI, Strain/Indicator: WP2 UVRA, Metabolic Activation: RAT, LIVER, S-9, KC 500, Method: PREINCUBATION) was “inactive; negative”; the mutagenic call (Test System: MOUSE LYMPHOMA, Strain/Indicator: L5178Y (TK+/TK-), Metabolic Activation: NONE, Method: SUSPENSION/PLATE) is “inactive; negative”; the mutagenic call (Test System: MOUSE LYMPHOMA, Strain/Indicator: L5178Y (TK+/TK-), Metabolic Activation: RAT, LIVER, S-9, AROCLOR 1254, Method: SUSPENSION/PLATE) was “active; positive”.

Regarding `C=CCCCCCCCCCCCCC`, the mutagenic call (Test System: AMES SALMONELLA TYPHIMURIUM, Strain/Indicator: TA98, Metabolic Activation: MOUSE, LIVER, S-9, Method: STANDARD PLATE) is “inactive; negative”; the mutagenic call under setting [1] was “inactive; negative”; the mutagenic call (Test System: AMES SALMONELLA TYPHIMURIUM, Strain/Indicator: TA100, Metabolic Activation: MOUSE, LIVER, S-9, Method: STANDARD PLATE) is “inactive; negative”; the mutagenic call under setting [2] is “inactive; negative”; the mutagenic call under setting [3] was “inactive; negative”; the mutagenic call under setting [4] is “inactive; negative”.
